Legend:
endogenous IRE1α [1] = test: IRE1α auto-phosphorylation immunoblot in INS-1 cells under ER stress; format: cell-based, rat
Description: (§1) FIGS. 5A-5E. […] (FIG. 5C) EtBr-stained agarose gel of XBP1 complementary DNA (cDNA) amplicons from the INS-1 cells described in (B).
(§2) To further explore how IRE1α modulators affect the kinase and RNase activities of endogenous IRE1α under ER stress, in vivo studies using INS-1 rat insulinoma cell lines, which are derived from insulin-producing pancreatic β-cell tumors and contain large well-developed ERs, were conducted.
For protein analysis, cells were lysed in M-PER buffer (Thermo Scientific) plus complete EDTA-free protease inhibitor (Roche) and phosphatase inhibitor cocktail (Sigma). The concentration of samples was determined using BCA Protein Assay (Thermo). […] Gels were run using MES buffer and transferred onto nitrocellulose transfer membrane using an XCell II™ Blot Module. Blocking, antibody incubation, and washing were done in PBS or TBS with 0.05% Tween-20 (v/v) and 5% (w/v) non-fat dry milk or BSA, or blocking buffer (Licor-Odyssey). Antibodies used were: mouse anti-Actin (Sigma-Aldrich); rabbit anti-cleaved Caspase-2 (Abcam); mouse anti-GAPDH, anti-c-Myc, anti-rabbit, anti-proinsulin, and anti-IRE1α (Santa Cruz Biotechnology); anti-phospho-IRE1α and anti-full length Caspase-2 (Novus Biologicals); and rabbit anti-Caspase-3, anti-JNK, anti-eIF2a, anti-phospho-eIF2a, and mouse anti-phospho-JNK (Cell Signaling). Antibody binding was detected by using near-infrared-dye-conjugated secondary antibodies (Licor) on the LI-COR Odyssey scanner or visualized by capturing on a CL-XPosure film using ECL SuperSignal West Dura Extended Duration Substrate (both from Thermo Scientific).

[2] = system: panel of kinases (Src, Abl); test: Counter-screen against a panel of kinases; format: biochemical; conditions: 12 kinases in this panel
IRE1α* [3] = molecular target: T1, IRE1α* (Homo sapiens, UniProt O75460); test: XBP1 RNA minisubstrate (FRET-quenched) RNase assay; format: biochemical; conditions: for IRE1α* RNase activity (XBP1 RNA cleavage), effect in words: in vitro
T1 construct: human IRE1α (residues 469-977, IRE1α*); made in house; host or cells: SF9 insect cells, Bac-to-Bac baculovirus

IRE1α* [4] = molecular target: T1, IRE1α*; test: IRE1α* kinase assay (96-well dot blot, 32γ-ATP, STK peptide substrate 2); format: biochemical
Description: FIGS. 16A-16C. Divergent modulation of IRE1α RNase activity using distinct classes of kinase inhibitors. (FIG. 16A) KIRA6 inhibition of IRE1α* kinase activity. IC50 values determined by fitting percent kinase activity (n=3); Urea PAGE of competition cleavage by IRE1α* of XBP1 RNA mini-substrate (FIG. 16B) and α^32P-labeled Ins2 RNA (FIG. 16C), under indicated [KIRA6]; IC50s determined by fitting in-gel fluorescence intensities (XBP1) and phosphorimager (Ins2).
KIRAs are tested for ability to inhibit IRE1α* kinase and RNase activities in vitro. The XBP1 minisubstrate assay shown in FIGS. 1B-1C, is amenable to 96- or 384-well format, and is used to determine RNase IC50s. In parallel, kinase IC50s for all KIRAs are determined in a 96-well dot blot assay with 32γ-ATP and STK peptide substrate 2 as substrates. Time-dependence of inhibition is determined for all electrophile-containing KIRAs. RNase and kinase assays have been used to profile the KIRAs in FIG. 13, showing a strong correlation between kinase and RNase IC50s. […] Thus, the structure-based design strategy uses these two kinases as counter targets (described below).

endogenous IRE1α [5] = test: XBP1 mRNA splicing in INS-1 cells under ER stress; format: cell-based, rat
Description: as §1, §2

IRE1α* [6] = molecular target: T1, IRE1α*; test: IRE1α* autophosphorylation kinase assay in vitro; format: biochemical
IRE1α* [7] = molecular target: T1, IRE1α*; test: ICAT cysteine footprinting (alkylation rates); format: binding; conditions: inhibitor 20 μM
Source text: FIGS. 3A-3D. Characterization of GP146's interaction with the ATP-binding site of IRE1α. (FIG. 3A) A crystal structure of the kinase domain of human IRE1α bound to ADP; the native cysteine residues that were monitored using the ICAT footprinting method are labeled and shown as thick rods and the DFG-motif is shown as thin bars; cys715 is part of the hinge region of IRE1α and its side chain partially occupies the ATP-binding site; cys645 is in the activation loop, two residues away from the DFG-motif; cys572 is located on the top of the N-terminal lobe of the catalytic domain and is distant from the ATP-binding site.
As Cys645 and Cys715 are located within the ATP-binding cleft of IRE1α, the accessibility of these residues would be expected to be affected by ligands that occupy this site, while Cys572 is a solvent-exposed residue located on the top of the N-terminal lobe of the kinase.

IRE1α* (P830L) = molecular target: T2, IRE1α* (P830L) (Homo sapiens, UniProt O75460, P830L); test: IRE1α* (P830L) cancer mutant: kinase, RNase, oligomeric state in vitro; format: biochemical
T2 construct: human IRE1α (residues 469-977, IRE1α*) or equivalent IRE1α mutants; made in house; host or cells: SF9 insect cells, Bac-to-Bac baculovirus
Source text: Compared to IRE1α* (WT), IRE1α* (P830L) has reduced kinase activity, as the full-length protein does in vivo. […] IRE1α* (P830L) cannot cleave a FRET-quenched XBP1 RNA mini-substrate (Han et al., 2009), consistent with reduced RNase activity in vivo.
A construct containing the cytosolic kinase and RNase domains of human IRE1α (residues 469-977, IRE1α*) or equivalent IRE1α mutants was expressed in SF9 insect cells using the Bac-to-Bac baculovirus expression system (Invitrogen) as described (Wang et al., 2012). […] (NEB)-treated dephosphorylated IRE1α* (dP-IRE1α*) was also prepared and all the crosslinking experiments were performed as described (Wang et al., 2012). The RNase assay using 5′FAM-3′BHQ-labeled XBP1 single stem-loop minisubstrate (5′FAM-[…]-3′BHQ, from Dharmacon) (SEQ ID NO:22), and the IRE1α*auto-phosphorylation kinase assay were both done as described (Wang et al., 2012). The ability of KIRA6 to inhibit the catalytic activity of Erk2, JNK2, JNK3, PKA, and Piml was determined using previously reported assay conditions (Hill et al., 2012). Internally ^32P-labelled RNAs (mouse XBP1 RNA and Ins2 RNA, as described in (Han et al., 2009), and rat rhodopsin mRNA) were also used as substrates. For time-course determination, IRE1α* proteins (16 nM) were incubated with or without 10 μM 1NM-PP1 for 20 min prior to addition of 20 nM radio-labeled RNAs. Reactions were quenched by addition of 4 M urea at different time points and then were subjected to urea 6% PAGE analysis. […] The cleavage buffer and general manipulation are the same as described (Wang et al., 2012). cDNA for rat rhodopsin was purchased from Invitrogen and amplified by PCR using primers: 5′-[…]-3′ (forward) (SEQ ID NO:23) and 5′-[…]-3′ (reverse) (SEQ ID NO:24). RNA was in vitro transcribed, cleaved by IRE1α*, and the cleavage sites mapped as described (Wang et al., 2012).

yeast and murine IRE1α = conditions: cited from earlier work
dP-IRE1α* = molecular target: T3, dP-IRE1α* (Homo sapiens, UniProt O75460); test: XBP1 RNA minisubstrate RNase assay with dephosphorylated IRE1α*; format: biochemical; conditions: of the levels of IRE1α*; increasing APY29
T3 construct: human IRE1α (residues 469-977, IRE1α*); made in house; host or cells: SF9 insect cells, then λ-phosphatase (NEB) treatment
Source text: Reactions were quenched by addition of 4 M urea at different time points and then were subjected to urea 6% PAGE analysis.

[8] = Compound toxicity / proliferative blocks in cells; format: cell-based
IRE1α* [9] = molecular target: T1, IRE1α*; test: DSS crosslinking, oligomer/monomer ratio of IRE1α*; format: biochemical; conditions: saturating inhibitor, DSS crosslinker
[10] = system: IRE1α mutants that lack kinase activity; conditions: cited from earlier work
[11] = varying concentration of the tested inhibitor

T1 sequence (O75460 469-977): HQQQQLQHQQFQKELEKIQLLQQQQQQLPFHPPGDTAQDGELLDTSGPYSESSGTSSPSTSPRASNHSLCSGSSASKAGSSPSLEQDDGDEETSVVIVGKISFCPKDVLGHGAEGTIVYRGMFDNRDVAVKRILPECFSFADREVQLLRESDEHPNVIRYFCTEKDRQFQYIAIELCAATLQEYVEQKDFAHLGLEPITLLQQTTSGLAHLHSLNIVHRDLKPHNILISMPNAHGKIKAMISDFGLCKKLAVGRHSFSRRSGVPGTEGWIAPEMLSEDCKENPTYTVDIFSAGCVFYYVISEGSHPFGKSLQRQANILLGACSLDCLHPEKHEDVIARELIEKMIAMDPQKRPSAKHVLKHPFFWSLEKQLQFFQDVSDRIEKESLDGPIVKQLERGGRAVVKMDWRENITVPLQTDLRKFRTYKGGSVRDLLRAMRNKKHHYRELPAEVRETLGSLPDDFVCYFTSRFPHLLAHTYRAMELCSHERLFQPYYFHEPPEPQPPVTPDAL
T2 sequence (O75460 469-977 P830L): as the sequence (O75460 469-977) above, with P362L counted along it
T3 sequence (O75460 469-977): as the sequence (O75460 469-977) above

What does the source list for `CC(C)c1nc(-c2ccc(NC(=O)Nc3cccc(C(F)(F)F)c3)c3ccccc23)c2c(N)nccn12` [KIRA3, 1-(4-(8-amino-3-isopropylimidazo[1,5-a]pyrazin-1-yl)naphthalen-1-yl)-3-(3-(trifluoromethyl)phenyl)urea]?
endogenous IRE1α auto-phosphorylation in INS-1 cells (endogenous IRE1α [1]; ER stress (Tg)): abrogates IRE1α autophosphorylation; off-target inhibition in kinase panel [2]: the only off-target inhibition observed is for the tyrosine kinases Src and Abl

Which results are given for `CC(C)(C)c1nc(-c2ccc(NC(=O)Nc3cccc(F)c3)c3ccccc23)c2c(N)nccn12` [KIRA7]?
IC50 (IRE1α* [3]; IRE1α*): < 30 nM; IC50 (IRE1α* [4]): 35 nM

Which “XBP1 mRNA splicing in INS-1 cells” value (endogenous IRE1α [5]; by Tm, compound at 10 μM) does the source give for `CNc1nccn2c(C(C)(C)C)nc(-c3ccc(NC(=O)Nc4cccc(C(F)(F)F)c4)c4ccccc34)c12` [(NMe)KIRA6, 1-(4-(8-methylamino-3-tert-butylimidazo[1,5-a]pyrazin-1-yl)naphthalen-1-yl)-3-(3-(trifluoromethyl)phenyl)urea] here?
The value was “inhibits neither output”.

And the “endogenous IRE1α auto-phosphorylation in INS-1 cells” value (endogenous IRE1α [1]; by Tg, compound at 10 μM)?
The value was “inhibits neither output”.

For `CNc1nccn2c(C(C)C)nc(-c3ccc(NC(=O)Nc4cccc(C(F)(F)F)c4)c4ccccc34)c12` [GP146(NMe), 1-(4-(3-isopropyl-8-(methylamino)imidazo[1,5-a]pyrazin-1-yl)naphthalen-1-yl)-3-(3-(trifluoromethyl)phenyl)urea], which “XBP1 mRNA splicing (IRE1α RNase activity) in INS-1 cells” value (endogenous IRE1α [5]; thapsigargin (Tg) 6 nM) is on record?
Its value is “does not block the splicing of XBP1 mRNA”.

What about the “IRE1α* RNase activity (XBP1 RNA cleavage), effect in words” value (from here on “IRE1α* RNase activity”) (IRE1α* [3]) of the same molecule?
Its value is “markedly diminished ability to inhibit the RNase activity of IRE1α compared to GP146”.

Which IC50 (IRE1α* [6]) does the source give for `c1cc(Nc2cc(C3CC3)[nH]n2)nc(Nc2ccc3nc[nH]c3c2)n1` [APY29] here?
The IC50 was 280 nM.

What about the “accessibility of Cys572” value (IRE1α* [7]) of the same molecule?
The value was “no detectable difference”.

And the “accessibility of Cys645 to alkylating agents” value (IRE1α* [7])?
Its value is “highly shielded from alkylating agents”.

And the “accessibility of Cys715 (rate of alkylation)” value (IRE1α* [7])?
Its value is “slowing the rate of alkylation”.

And the “RNase activity of IRE1α* (P830L)” value (IRE1α* (P830L))?
The value was “partially rescue RNase activity”.

What about the “autophosphorylation by IRE1α* (P830L)” value (IRE1α* (P830L)) of the same molecule?
The value was “suppresses residual autophosphorylation”.

And the “oligomeric state of IRE1α* (P830L)” value (IRE1α* (P830L))?
The value was “increases IRE1α* (P830L)'s oligomeric state”.

And the “RNase of yeast and murine IRE1α” value (yeast and murine IRE1α)?
Its value is “directly activate the RNase of yeast and murine IRE1α”.

And the “IRE1α* RNase activity” value (IRE1α* [3])?
Its value is “acting as an activator”.

And the “RNase competition, IRE1α* under fixed KIRA3 (GP146)” value (IRE1α* [3]; [11])?
The value was “progressively reverse IRE1α* RNase inhibition caused by a fixed concentration of KIRA3”.

And the “RNase competition, IRE1α* under fixed STF-083010” value (IRE1α* [3]; [11])?
Its value is “cannot rescue direct inhibition caused by the covalent RNase modifier STF-083010”.

What about the “dP-IRE1α* cleavage of XBP1 mini-substrate restored, plateau” value (dP-IRE1α*) of the same molecule?
Its value is ~60%.

And the toxicity in cells [8]?
The toxicity in cells was “pleiotropic toxicity, including proliferative blocks at low micromolar concentrations”.

And the “IRE1α* oligomerization (oligomer/monomer ratio)” value (IRE1α* [9])?
Its value is “further enhances”.

For `CC(C)c1nc(-c2ccc(NC(=O)Nc3cccc(C(F)(F)F)c3)cc2)c2c(N)nccn12` [KIRA2, 1-(4-(8-amino-3-isopropylimidazo[1,5-a]pyrazin-1-yl)phenyl)-3-(3-(trifluoromethyl)phenyl)urea], which “IRE1α* RNase activity” value (IRE1α* [3]) is on record?
Its value is “significant increase in overall potency”.

Which “RNase activity of kinase-inactive IRE1α mutants” value [10] does the source give for `CC(C)(C)n1nc(Cc2cccc3ccccc23)c2c(N)ncnc21` [1NM-PP1] here?
Its value is “able to rescue the RNase activity of IRE1α mutants that lack kinase activity”.

Which “IRE1α* RNase activity” value (IRE1α* [3]) does the source give for `CC(C)c1nc(-c2ccc(NC(=O)c3cccc(C(F)(F)F)c3)c3ccccc23)c2c(N)nccn12` [GP146(Am), N-(4-(8-amino-3-isopropylimidazo[1,5-a]pyrazin-1-yl)naphthalen-1-yl)-3-(trifluoromethyl)benzamide] here?
Its value is “markedly diminished ability to inhibit the RNase activity of IRE1α compared to GP146”.

Reference: patent US20170165259A1, “COMBINED MODULATION OF IRE1” (THE REGENTS OF THE UNIVERSITY OF CALIFORNIA, priority 2014, published 2017)
